Results: ChEMBL document CHEMBL1121939, “1-beta-D-arabinofuranosyl-1H-imidazo[4,5-c]pyridine (ara-3-deazaadenine)” (J Med Chem, 1982)

What was measured:
Adenosylhomocysteinase = Adenosylhomocysteinase (Homo sapiens, UniProt P23526); test: Inhibitory activity against S-adenosyl-homocysteine hydrolase; design: species or system herpes simplex virus; conditions: read-out: I50
L929 = test: Inhibitory activity against herpes simplex virus type 1 grown in L929 cells; format: functional, Mus musculus

Chain of Adenosylhomocysteinase (P23526 whole entry): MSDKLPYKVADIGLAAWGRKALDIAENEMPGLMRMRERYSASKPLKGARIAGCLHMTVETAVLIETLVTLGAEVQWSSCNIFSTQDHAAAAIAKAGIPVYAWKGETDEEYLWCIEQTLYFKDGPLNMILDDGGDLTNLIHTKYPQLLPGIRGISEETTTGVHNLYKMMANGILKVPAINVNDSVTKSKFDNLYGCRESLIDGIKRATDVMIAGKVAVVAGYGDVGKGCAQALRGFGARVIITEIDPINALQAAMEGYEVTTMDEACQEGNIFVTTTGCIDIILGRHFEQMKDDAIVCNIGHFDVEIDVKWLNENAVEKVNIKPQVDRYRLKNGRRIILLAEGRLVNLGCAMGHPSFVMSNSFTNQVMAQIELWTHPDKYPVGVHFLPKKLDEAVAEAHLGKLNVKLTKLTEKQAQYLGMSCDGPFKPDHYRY

Row | IC50 (Adenosylhomocysteinase) | SMILES | MED50 (L929) | Virus rating (L929)
1 | 4 µM | Nc1nccc2c1ncn2[C@@H]1O[C@H](CO)[C@@H](O)[C@H]1O |  | 
2 | 100 µM | Nc1nccc2c1ncn2[C@@H]1O[C@H](CO)[C@@H](O)[C@@H]1O | 189 µg/mL | 0.8
3 |  | Nc1ncnc2c1ncn2[C@@H]1O[C@H](CO)[C@@H](O)[C@@H]1O [VIDARABINE] | 0.8 µg/mL | 3.7
